Source: US20220387604A1, “SELECTIVE DUAL HISTONE DEACETYLASE 6/8 (HDAC6/8) DEGRADERS AND METHODS OF USE THEREOF” (DANA-FARBER CANCER INSTITUTE, INC., priority 2019, published 2022)

Experiments:
Type in all cases: biochemical
HDAC3 = target: T1, HDAC3 (Homo sapiens, UniProt O15379); assay: HDAC enzymatic assay (Reaction Biology), HDAC3
T1 construct: purchased Reaction Biology
Protocol: (§1) Compound 1 was tested in an enzymatic assay from Reaction Biology® against 10 HDAC isoforms. The IC50 values were derived from a 10-dose response curve.
(§2) Base Reaction buffer: 50 mM Tris-HCl, pH8.0, 137 mM NaCl, 2.7 mM KCl, and 1 mM MgCl2, Add fresh: 1 mg/ml BSA, 1% DMSO
(§3) Fluorogenic HDAC General Substrate (HDAC1, HDAC2, HDAC3, HDAC6, HDAC10, and HDAC11): 50 μM, Arg-His-Lys-Lys(Ac)-AMC
(§4) 1. Delivered 2× enzyme in wells of reaction plate except in the control wells and added buffer to control wells. 2. Delivered compounds in 100% DMSO into the enzyme mixture by Acoustic technology (Echo550; nanoliter range). Spin down and pre-incubation. 3. Delivered 2× Substrate Mixture (Fluorogenic HDAC Substrate and co-factor if applicable) in all reaction wells to initiate the reaction. Spin and shake. 4. Incubated for 30 min for Class 2A, 1 h for HDAC1, 2, 3, and 6, and 2 h for the rest of HDAC isoforms and SIRTs at 30° C. with seal.
(§5) 5. Added Developer with Trichostatin A (or Nicotinamide for SIRTs) to stop the reaction and to generate fluorescent color. 6. The fluorescence that was generated was detected with excitation (Ex) at […] and emission (Em) at 460 nM by the EnVision Multilabel Plate Reader (PerkinElmer®, Santa Clara, Calif., USA).
(§6) IC50 values were derived from a 10-dose response curve.

HDAC9 = target: T2, HDAC9 (Homo sapiens, UniProt Q9UKV0); assay: HDAC enzymatic assay (Reaction Biology), HDAC9; details: summary of Table 1
T2 construct: purchased Reaction Biology
T2 sequence (Q9UKV0 whole entry): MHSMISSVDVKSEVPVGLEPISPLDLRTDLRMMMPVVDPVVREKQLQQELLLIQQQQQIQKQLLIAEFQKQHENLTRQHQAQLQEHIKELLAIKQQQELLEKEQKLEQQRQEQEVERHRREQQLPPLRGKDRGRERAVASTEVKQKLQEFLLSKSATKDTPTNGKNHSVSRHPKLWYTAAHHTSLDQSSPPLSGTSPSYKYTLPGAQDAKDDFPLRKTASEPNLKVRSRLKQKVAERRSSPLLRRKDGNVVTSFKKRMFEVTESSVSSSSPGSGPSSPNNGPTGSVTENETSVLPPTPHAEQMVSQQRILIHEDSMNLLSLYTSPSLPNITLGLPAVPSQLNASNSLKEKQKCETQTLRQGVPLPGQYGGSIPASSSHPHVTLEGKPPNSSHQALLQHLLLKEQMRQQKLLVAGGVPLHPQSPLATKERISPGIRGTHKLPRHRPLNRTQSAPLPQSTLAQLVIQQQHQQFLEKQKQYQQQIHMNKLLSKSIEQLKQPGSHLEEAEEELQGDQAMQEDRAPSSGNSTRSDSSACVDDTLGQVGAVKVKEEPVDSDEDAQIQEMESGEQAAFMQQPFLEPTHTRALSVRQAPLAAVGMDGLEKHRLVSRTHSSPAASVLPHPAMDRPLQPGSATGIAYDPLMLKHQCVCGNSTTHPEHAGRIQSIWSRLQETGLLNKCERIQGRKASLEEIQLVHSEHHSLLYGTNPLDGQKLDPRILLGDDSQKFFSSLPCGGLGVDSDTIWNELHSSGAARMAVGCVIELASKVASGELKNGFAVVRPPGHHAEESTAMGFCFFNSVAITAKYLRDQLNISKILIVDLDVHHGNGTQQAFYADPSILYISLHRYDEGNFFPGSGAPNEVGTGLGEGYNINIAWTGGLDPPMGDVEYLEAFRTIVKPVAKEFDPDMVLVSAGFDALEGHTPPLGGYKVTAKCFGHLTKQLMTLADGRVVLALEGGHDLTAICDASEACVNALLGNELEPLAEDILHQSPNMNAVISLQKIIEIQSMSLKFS
Protocol: as §1, §2
(§7) Class2A Substrate (HDAC4, HDAC5, HDAC7, and HDAC9): Boc-Lys(trifluoroacetyl)-AMC
as §4, §5, §6

HDAC4 = target: T3, HDAC4 (Homo sapiens, UniProt P56524); assay: HDAC enzymatic assay (Reaction Biology), HDAC4; details: summary of Table 1
T3 construct: purchased Reaction Biology
T3 sequence (P56524 whole entry): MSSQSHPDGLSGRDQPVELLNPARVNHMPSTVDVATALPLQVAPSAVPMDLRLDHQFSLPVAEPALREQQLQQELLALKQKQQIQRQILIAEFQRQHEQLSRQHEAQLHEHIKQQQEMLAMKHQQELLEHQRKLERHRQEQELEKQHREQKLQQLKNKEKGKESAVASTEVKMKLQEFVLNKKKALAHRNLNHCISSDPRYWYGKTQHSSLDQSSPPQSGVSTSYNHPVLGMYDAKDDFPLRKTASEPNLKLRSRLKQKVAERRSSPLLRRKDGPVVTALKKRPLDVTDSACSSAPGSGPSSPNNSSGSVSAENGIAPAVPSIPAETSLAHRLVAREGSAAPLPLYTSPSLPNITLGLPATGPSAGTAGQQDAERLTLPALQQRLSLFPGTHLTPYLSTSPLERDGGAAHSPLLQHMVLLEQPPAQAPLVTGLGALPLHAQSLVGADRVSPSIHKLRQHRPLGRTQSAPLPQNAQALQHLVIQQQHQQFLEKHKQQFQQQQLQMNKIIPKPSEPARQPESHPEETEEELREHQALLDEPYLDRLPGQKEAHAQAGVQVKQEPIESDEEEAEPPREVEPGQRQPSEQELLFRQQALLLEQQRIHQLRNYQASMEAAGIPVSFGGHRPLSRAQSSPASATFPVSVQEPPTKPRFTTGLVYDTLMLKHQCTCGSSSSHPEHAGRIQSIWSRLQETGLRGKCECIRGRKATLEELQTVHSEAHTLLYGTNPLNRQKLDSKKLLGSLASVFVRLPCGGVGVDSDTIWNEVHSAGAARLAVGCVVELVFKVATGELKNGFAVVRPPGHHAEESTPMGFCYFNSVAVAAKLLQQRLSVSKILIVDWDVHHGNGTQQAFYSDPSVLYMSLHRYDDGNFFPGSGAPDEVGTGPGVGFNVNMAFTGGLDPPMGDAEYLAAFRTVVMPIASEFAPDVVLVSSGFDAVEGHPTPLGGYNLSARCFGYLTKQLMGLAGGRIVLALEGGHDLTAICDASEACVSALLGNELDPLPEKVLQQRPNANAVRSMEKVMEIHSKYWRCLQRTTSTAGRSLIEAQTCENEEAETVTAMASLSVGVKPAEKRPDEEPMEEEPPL
Protocol: as §1, §2, §7, §4, §5, §6

HDAC6 = target: T4, HDAC6 (Homo sapiens, UniProt Q9UBN7); assay: HDAC enzymatic assay (Reaction Biology), HDAC6; details: 10-dose response curve; read-out: Compound IC50 (M), HDAC6
T4 construct: purchased Reaction Biology
T4 sequence (Q9UBN7 1-1215): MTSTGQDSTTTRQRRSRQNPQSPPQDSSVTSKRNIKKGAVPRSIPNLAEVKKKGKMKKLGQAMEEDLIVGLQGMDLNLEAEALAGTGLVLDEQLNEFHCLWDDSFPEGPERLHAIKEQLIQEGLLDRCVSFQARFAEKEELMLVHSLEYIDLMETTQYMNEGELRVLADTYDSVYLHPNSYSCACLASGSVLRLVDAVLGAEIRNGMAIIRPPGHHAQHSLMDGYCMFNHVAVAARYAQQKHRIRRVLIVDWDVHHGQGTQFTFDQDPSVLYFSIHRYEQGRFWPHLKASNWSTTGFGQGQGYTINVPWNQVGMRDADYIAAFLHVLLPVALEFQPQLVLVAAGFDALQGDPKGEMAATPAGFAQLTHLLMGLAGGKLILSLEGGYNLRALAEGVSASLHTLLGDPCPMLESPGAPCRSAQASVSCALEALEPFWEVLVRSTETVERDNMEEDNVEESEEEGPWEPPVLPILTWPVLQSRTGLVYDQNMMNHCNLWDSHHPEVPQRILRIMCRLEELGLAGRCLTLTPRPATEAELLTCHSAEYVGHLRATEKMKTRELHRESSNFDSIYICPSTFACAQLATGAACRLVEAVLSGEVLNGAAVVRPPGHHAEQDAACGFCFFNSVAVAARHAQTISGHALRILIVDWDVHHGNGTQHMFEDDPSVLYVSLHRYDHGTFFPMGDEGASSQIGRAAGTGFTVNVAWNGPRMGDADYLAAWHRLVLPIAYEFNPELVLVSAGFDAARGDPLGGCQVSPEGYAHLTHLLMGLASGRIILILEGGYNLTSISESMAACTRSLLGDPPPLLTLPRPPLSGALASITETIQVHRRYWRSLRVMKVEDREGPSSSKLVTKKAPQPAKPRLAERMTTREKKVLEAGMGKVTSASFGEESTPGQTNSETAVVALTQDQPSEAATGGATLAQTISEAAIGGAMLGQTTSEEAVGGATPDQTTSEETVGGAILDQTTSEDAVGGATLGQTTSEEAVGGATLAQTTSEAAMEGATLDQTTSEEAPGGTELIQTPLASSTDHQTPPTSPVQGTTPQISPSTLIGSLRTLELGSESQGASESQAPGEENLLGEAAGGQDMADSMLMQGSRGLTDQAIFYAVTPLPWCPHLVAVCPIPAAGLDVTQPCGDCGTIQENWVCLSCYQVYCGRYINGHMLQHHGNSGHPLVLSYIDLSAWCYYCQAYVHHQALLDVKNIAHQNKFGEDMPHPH
Protocol: as §1, §2, §3, §4, §5, §6

HDAC1 = target: T5, HDAC1 (Homo sapiens, UniProt Q13547); assay: HDAC enzymatic assay (Reaction Biology), HDAC1
T5 construct: purchased Reaction Biology
T5 sequence (Q13547 whole entry): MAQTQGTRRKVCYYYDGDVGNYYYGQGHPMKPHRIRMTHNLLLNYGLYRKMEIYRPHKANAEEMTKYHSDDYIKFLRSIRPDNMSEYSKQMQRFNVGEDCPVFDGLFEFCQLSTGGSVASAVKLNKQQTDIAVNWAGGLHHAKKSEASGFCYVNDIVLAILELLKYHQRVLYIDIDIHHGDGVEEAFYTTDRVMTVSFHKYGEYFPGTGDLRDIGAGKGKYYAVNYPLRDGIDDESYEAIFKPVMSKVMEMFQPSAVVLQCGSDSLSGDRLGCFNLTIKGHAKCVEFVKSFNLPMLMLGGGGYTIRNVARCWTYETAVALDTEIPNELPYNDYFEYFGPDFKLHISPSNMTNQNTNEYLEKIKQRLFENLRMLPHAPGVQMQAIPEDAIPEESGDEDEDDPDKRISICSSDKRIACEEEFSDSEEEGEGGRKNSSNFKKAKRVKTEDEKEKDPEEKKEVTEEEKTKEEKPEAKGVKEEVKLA
Protocol: as §1, §2, §3, §4, §5, §6

T1 sequence (O15379 whole entry): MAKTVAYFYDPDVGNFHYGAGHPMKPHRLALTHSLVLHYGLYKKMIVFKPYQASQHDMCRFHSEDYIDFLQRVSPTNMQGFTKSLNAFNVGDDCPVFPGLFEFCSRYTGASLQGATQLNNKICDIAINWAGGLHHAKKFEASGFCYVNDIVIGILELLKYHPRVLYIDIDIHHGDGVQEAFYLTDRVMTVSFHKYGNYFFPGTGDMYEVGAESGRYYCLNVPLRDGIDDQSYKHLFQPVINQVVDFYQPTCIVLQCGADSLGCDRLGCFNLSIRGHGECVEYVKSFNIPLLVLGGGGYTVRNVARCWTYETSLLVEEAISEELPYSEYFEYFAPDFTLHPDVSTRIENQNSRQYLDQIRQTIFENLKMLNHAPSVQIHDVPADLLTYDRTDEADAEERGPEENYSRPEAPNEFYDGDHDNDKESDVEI
T1 sequence (Q9Y618 395-489 partner limits assumed): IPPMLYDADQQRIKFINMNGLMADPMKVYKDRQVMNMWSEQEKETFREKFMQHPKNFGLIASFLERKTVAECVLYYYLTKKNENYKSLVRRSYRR

O=C(/C=C/c1ccc(CN(CCOCCOCCNc2cccc3c2C(=O)N(C2CCC(=O)NC2=O)C3=O)CCc2c[nH]c3ccccc23)cc1)NO (stereo not shown) [Compound 1, (E)-3-(4-(((2-(1H-indol-3-yl)ethyl)(2-(2-(2-((2-(2,6-dioxopiperidin-3-yl)-1,3-dioxoisoindolin-4-yl)amino)ethoxy)ethoxy)ethyl)amino)methyl)phenyl)-N-hydroxyacrylamide]
IC50 (HDAC3; 10-dose response curve, read-out: Compound IC50 (M), HDAC3): 1.29e-06 M
inhibition of enzymatic activity of HDAC3 (in words) (HDAC3; summary of Table 1): Moderate inhibition
inhibition of enzymatic activity of HDAC9 (in words) (HDAC9): did not inhibit
inhibition of enzymatic activity of HDAC4 (in words) (HDAC4): did not inhibit
IC50 (HDAC6): 1.6e-07 M
IC50 (HDAC1; 10-dose response curve, read-out: Compound IC50 (M), HDAC1): 1.06e-06 M
inhibition of enzymatic activity of HDAC1 (in words) (HDAC1; summary of Table 1): Moderate inhibition
